Laboratory results published in ChEMBL document CHEMBL1201862, “PubChem BioAssay data set” (2004).
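Cultured in 96-well plates, cells were exposed to test compound for 48 hours across five concentrations. GI50 marks 50% less growth.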 Active and inactive are the calls of the source. No stated cut-off is given here; in the data, active = GI50 up to about 1.1 µM and inactive = higher.

Experiments:
Assay in all cases: DTP human tumour cell line panel, 48 h
HCT-116 = system: HCT-116
SK-MEL-28 = system: SK-MEL-28
UO-31 = system: UO-31
NCI-H460 = system: NCI-H460
SW-620 = system: SW-620
HCT-15 = system: HCT-15
NCI-H522 = system: NCI-H522
A549 = system: A549
UACC-257 = system: UACC-257
OVCAR-3 = system: OVCAR-3
SN12C = system: SN12C
CAKI-1 = system: CAKI-1
OVCAR-4 = system: OVCAR-4
RXF 393 = system: RXF 393
DLD-1 = system: DLD-1
SNB-75 = system: SNB-75
A498 = system: A498
NCI/ADR-RES = system: NCI/ADR-RES
HOP-92 = system: HOP-92
MCF7 = system: MCF7

Structure (SMILES) | GI50 (HCT-116) | GI50 (SK-MEL-28) | GI50 (UO-31) | GI50 (NCI-H460) | GI50 (SW-620) | GI50 (HCT-15) [µM] | GI50 (NCI-H522) | GI50 (A549) | GI50 (UACC-257) | GI50 (OVCAR-3) | GI50 (SN12C) | GI50 (CAKI-1) | GI50 (OVCAR-4) | GI50 (RXF 393) | GI50 (DLD-1) | GI50 (SNB-75) | GI50 (A498) | GI50 (NCI/ADR-RES) | GI50 (HOP-92) | GI50 (MCF7)
CCOC(=O)[C@H]1Nc2ccc([N+](=O)[O-])cc2C2c3ccccc3CC21 (stereo not given in full) | 16.7 µM (inactive) | 12.1 µM (inactive) | 15 µM (inactive) | 18.8 µM (inactive) | 11.9 µM (inactive) | 15.3 | 6.7 µM (inactive) | 25.9 µM (inactive) | 18.7 µM (inactive) | 9.84 µM (inactive) | 15.5 µM (inactive) | 27.8 µM (inactive) | 18.4 µM (inactive) | 4.53 µM (inactive) | 25.4 µM (inactive) | 26 µM (inactive) | – | – | – | –
CCCN(C(=O)c1c(Cl)nnc(Cl)c1C(=O)c1cc(Cl)nnc1Cl)c1cc(Cl)nnc1Cl | 6.87 µM (inactive) | 12.9 µM (inactive) | 17 µM (inactive) | 20.9 µM (inactive) | 6.67 µM (inactive) | 4.65 | 3.24 µM (inactive) | 32.1 µM (inactive) | 14.2 µM (inactive) | 10.9 µM (inactive) | 12.4 µM (inactive) | 7.23 µM (inactive) | 14.5 µM (inactive) | 2.86 µM (inactive) | – | 15.3 µM (inactive) | 15.5 µM (inactive) | 6.7 µM (inactive) | 18.4 µM (inactive) | 4.49 µM (inactive)
O=C1c2ccccc2-c2ccc(/N=[N+](/[O-])c3ccc4c(c3)C(=O)c3ccccc3-4)cc21 | > 100 µM (inactive) | > 100 µM (inactive) | > 100 µM (inactive) | > 100 µM (inactive) | > 100 µM (inactive) | > 100 | > 100 µM (inactive) | > 100 µM (inactive) | > 100 µM (inactive) | > 100 µM (inactive) | > 100 µM (inactive) | > 100 µM (inactive) | > 100 µM (inactive) | > 100 µM (inactive) | – | > 100 µM (inactive) | > 100 µM (inactive) | > 100 µM (inactive) | > 100 µM (inactive) | > 100 µM (inactive)
O=c1nc(N2CCNCC2)oc2cc(Cl)oc(=O)c12 | 2.43 µM (inactive) | 3.13 µM (inactive) | 7.67 µM (inactive) | 6.98 µM (inactive) | 2.26 µM (inactive) | 3.25 | 1.7 µM (inactive) | 7.52 µM (inactive) | 7.57 µM (inactive) | 4.06 µM (inactive) | 6.11 µM (inactive) | 2.59 µM (inactive) | 5.45 µM (inactive) | 9.1 µM (inactive) | – | 3.7 µM (inactive) | 20.8 µM (inactive) | 6.47 µM (inactive) | 3.94 µM (inactive) | 3.98 µM (inactive)
COc1cc2c(c(OC)c1OC)C(=O)[C@H](Br)[C@H]2NC(=O)NCCCl | 82.6 µM (inactive) | > 100 µM (inactive) | > 100 µM (inactive) | 80.4 µM (inactive) | > 100 µM (inactive) | 62.5 | > 100 µM (inactive) | 79.6 µM (inactive) | > 100 µM (inactive) | 68.2 µM (inactive) | > 100 µM (inactive) | > 100 µM (inactive) | 71 µM (inactive) | 97.1 µM (inactive) | – | > 100 µM (inactive) | > 100 µM (inactive) | > 100 µM (inactive) | > 100 µM (inactive) | > 100 µM (inactive)
O=c1nc2n(CCO)c(-c3ccccc3)c(-c3ccccc3)nc-2c(=O)[nH]1 | > 100 µM (inactive) | > 100 µM (inactive) | > 100 µM (inactive) | > 100 µM (inactive) | > 100 µM (inactive) | > 100 | > 100 µM (inactive) | > 100 µM (inactive) | > 100 µM (inactive) | > 100 µM (inactive) | > 100 µM (inactive) | > 100 µM (inactive) | > 100 µM (inactive) | > 100 µM (inactive) | – | > 100 µM (inactive) | > 100 µM (inactive) | > 100 µM (inactive) | 88.9 µM (inactive) | > 100 µM (inactive)
Nc1nc2ccc(OCC(O)CN3CCCCC3)cc2[n+]([O-])n1 (stereo not given) | > 100 µM (inactive) | > 100 µM (inactive) | > 100 µM (inactive) | > 100 µM (inactive) | > 100 µM (inactive) | > 100 | > 100 µM (inactive) | > 100 µM (inactive) | > 100 µM (inactive) | > 100 µM (inactive) | > 100 µM (inactive) | > 100 µM (inactive) | > 100 µM (inactive) | > 100 µM (inactive) | – | 70.3 µM (inactive) | > 100 µM (inactive) | > 100 µM (inactive) | > 100 µM (inactive) | > 100 µM (inactive)
CN(C)CCNC(=O)c1ccc(Cl)c2cc3ccccc3nc12 | 0.408 µM (active) | 1.82 µM (inactive) | 0.404 µM (active) | 0.218 µM (active) | 0.453 µM (active) | 0.54 | 0.612 µM (active) | 0.389 µM (active) | 0.885 µM (active) | 1.22 µM (inactive) | 0.577 µM (active) | 0.448 µM (active) | 0.653 µM (active) | 1.07 µM (active) | – | 1.67 µM (inactive) | 0.143 µM (active) | 0.927 µM (active) | 0.187 µM (active) | 0.381 µM (active)
CC1(C)CC2(C)ON=C(c3ccccc3)N2c2ccccc2N1 (stereo not given) | 14.8 µM (inactive) | 23 µM (inactive) | 18.2 µM (inactive) | 20.9 µM (inactive) | 36.5 µM (inactive) | 29.6 | 21.4 µM (inactive) | 25.1 µM (inactive) | 24.4 µM (inactive) | 16.5 µM (inactive) | 30.3 µM (inactive) | 20.8 µM (inactive) | 39.8 µM (inactive) | 20.8 µM (inactive) | – | 23.9 µM (inactive) | 28.6 µM (inactive) | 23.4 µM (inactive) | 21.6 µM (inactive) | 22.2 µM (inactive)
O=C1O[C@H]2[C@H](OC(=O)c3cc(O)c(O)c(O)c3)[C@@H](OC(=O)c3cc(O)c(O)c4c3[C@@H]3C1=CC(=O)C(O)(O)C3(O)O4)[C@H](OC(=O)c1cc(O)c(O)c(O)c1)O[C@@H]2COC(=O)c1cc(O)c(O)c(O)c1 (stereo not given in full) [TERCHEBIN] | 33 µM (inactive) | > 100 µM (inactive) | 18.5 µM (inactive) | 30.1 µM (inactive) | 63.5 µM (inactive) | 36.6 | 32.1 µM (inactive) | 23.9 µM (inactive) | > 100 µM (inactive) | 39.5 µM (inactive) | > 100 µM (inactive) | 36.2 µM (inactive) | 32.9 µM (inactive) | > 100 µM (inactive) | – | 49.9 µM (inactive) | > 100 µM (inactive) | 53.2 µM (inactive) | 47.8 µM (inactive) | 74.5 µM (inactive)
CC(C)(C)OC(=O)N1C[C@H](CC(=O)OCc2ccccc2)C[C@H]1C(=O)OCC(Cl)(Cl)Cl | 3.88 µM (inactive) | 13.6 µM (inactive) | 3.94 µM (inactive) | 11.2 µM (inactive) | 11.4 µM (inactive) | 3.27 | 1.62 µM (inactive) | 4.69 µM (inactive) | 5.89 µM (inactive) | 3.43 µM (inactive) | 6.62 µM (inactive) | 3.7 µM (inactive) | 3.95 µM (inactive) | 6.15 µM (inactive) | – | 10.5 µM (inactive) | 3.44 µM (inactive) | 2.64 µM (inactive) | 1.79 µM (inactive) | 3.11 µM (inactive)
CC(C)=NC(C(=O)O)C(C)(C)S (stereo not given) | > 100 µM (inactive) | > 100 µM (inactive) | > 100 µM (inactive) | > 100 µM (inactive) | > 100 µM (inactive) | > 100 | > 100 µM (inactive) | > 100 µM (inactive) | > 100 µM (inactive) | > 100 µM (inactive) | > 100 µM (inactive) | > 100 µM (inactive) | > 100 µM (inactive) | > 100 µM (inactive) | – | > 100 µM (inactive) | > 100 µM (inactive) | > 100 µM (inactive) | > 100 µM (inactive) | > 100 µM (inactive)
CCOC(=O)c1nc(-c2ccccc2)oc1OCC | > 100 µM (inactive) | > 100 µM (inactive) | – | > 100 µM (inactive) | > 100 µM (inactive) | – | > 100 µM (inactive) | > 100 µM (inactive) | – | > 100 µM (inactive) | > 100 µM (inactive) | – | > 100 µM (inactive) | > 100 µM (inactive) | > 100 µM (inactive) | > 100 µM (inactive) | – | – | – | –
CCOC(=O)C(=CNc1ccc(F)c(F)c1)C(=O)OCC | > 100 µM (inactive) | > 100 µM (inactive) | 55.3 µM (inactive) | > 100 µM (inactive) | > 100 µM (inactive) | 88.3 | 81.7 µM (inactive) | > 100 µM (inactive) | > 100 µM (inactive) | > 100 µM (inactive) | > 100 µM (inactive) | > 100 µM (inactive) | 95.3 µM (inactive) | > 100 µM (inactive) | – | > 100 µM (inactive) | > 100 µM (inactive) | > 100 µM (inactive) | > 100 µM (inactive) | > 100 µM (inactive)
CC(C)CC(N)C(=O)O (stereo not given) | > 100 µM (inactive) | > 100 µM (inactive) | > 100 µM (inactive) | > 100 µM (inactive) | > 100 µM (inactive) | > 100 | > 100 µM (inactive) | > 100 µM (inactive) | > 100 µM (inactive) | > 100 µM (inactive) | > 100 µM (inactive) | > 100 µM (inactive) | > 100 µM (inactive) | > 100 µM (inactive) | – | > 100 µM (inactive) | > 100 µM (inactive) | > 100 µM (inactive) | > 100 µM (inactive) | > 100 µM (inactive)
